Assay results as given in patent US10857247B2, “Compounds and compositions for the detection and treatment of Alzheimer's disease and related disorders” (The General Hospital Corporation, priority 2008, dated 2020).
Like-named read-outs stand apart in the source and are kept apart here.

How the values were obtained:
brain amyloid deposits = settings: APP23 transgenic mice, 180 min after iv injection; cited from earlier work
[1] = normal mice, iv, cited from earlier work
[2] = cited from earlier work
[3] = Biodistribution of [18F]fluoro-RS 86 in rats; format: in vivo
Experimental: As described above, 2-(2-methanesulfonylethyl)-8-methyl-2,8-diazaspiro[4,5]decane-1,3-dione was prepared in five steps. The RS-86 mesylate (2 mg) in acetonitrile (0.1 mL) was added to a sealed vial containing dried K^18F/kryptofix and heated at 120° C. for 10 min. The mixture was diluted with water (0.2 mL) and purified by HPLC (C-18 column 250×10 mm, flow 6 mL/min, PBS/acetonitrile (95:5). The fraction containing [^18F]fluoro-RS 86 was evaporated to dryness and the activity dissolved in PBS before filtering. Biodistribution was performed in rats at 5, 30 and 60 min.

## CNc1ccc(C=Cc2nc3ccc(OCCF)cc3o2)cc1 [BF-168, 6-(2-fluoroethoxy)-2-[2-(4-methylaminophenyl)ethenyl]-benzoxazole]
Brain amyloid deposits
  Labeling in autoradiograms of brain sections: selective labeling of brain amyloid deposits with little non-specific binding
[1]; at 2 min after injection
  Initial brain uptake: 3.9 % injected dose/gm
[1]; clearance from brain
  Clearance t1/2: 24.7 min

## CCN1C(=O)CC2(CCN([11CH3])CC2)C1=O [[^11C]RS-86]
[2]; comparison value for the C-11 labeled analog
  Brain uptake: 1%
[2]; rats, biodistribution as a function of time
  Initial brain uptake: about 1.1%

## O=C1CC2(CCNCC2)C(=O)N1CC[18F] [[^18F]fluoro-RS 86, [F-18]-N-2-fluoroethyl-2,8-diazaspiro[4,5]decane-1,3-dione]
[3]; 5 min
  Brain uptake: 0.27
[3]; 30 min
  Brain uptake: 0.54
[3]; 60 min
  Brain uptake: 0.48
[3]; at 30 min
  Blood uptake: 0.3%
  Liver uptake: 0.64%
  Stomach uptake: 0.90%
  Uptake in the kidneys (greatest uptake): 2.5%
[3]; bone at 30 min
  Defluorination (uptake in bone): 0.42%
[3]; restated in comparison with [11C]RS-86
  Brain uptake: 0.54%
